Test system: 616215-338-R-J1-PDC complex spheroids, viability % test/control
Assay: Anticancer human tumor 616215-338-R-J1-PDC patient-derived colon adenocarcinoma cell line growth inhibition [CLK]
Details: for IC50: curve of first compound; for viability, T/C: stronger effect = lower value
Outline: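 Multi-cell-type spheroids combined patient-derived tumor cells with HUVEC endothelial cells and human mesenchymal stem cells. Paired agents were dosed in half-log steps down from about clinical Cmax, or from 10 microM where Cmax was unknown.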

[1] = second compound 0.0316 µM, first compound 0.0316 µM
[2] = second compound 0.0316 µM, first compound 0.1 µM
[3] = second compound 0.0316 µM, first compound 0.316 µM
[4] = second compound 0.0316 µM, first compound 1 µM
[5] = second compound 0.1 µM, first compound 0.0316 µM
[6] = second compound 0.1 µM, first compound 0.1 µM
[7] = second compound 0.1 µM, first compound 0.316 µM
[8] = second compound 0.1 µM, first compound 1 µM
[9] = second compound 0.316 µM, first compound 0.0316 µM
[10] = second compound 0.316 µM, first compound 0.1 µM
[11] = second compound 0.316 µM, first compound 0.316 µM
[12] = second compound 0.316 µM, first compound 1 µM
[13] = second compound 1 µM, first compound 0.0316 µM
[14] = second compound 1 µM, first compound 0.1 µM
[15] = second compound 1 µM, first compound 0.316 µM
[16] = second compound 1 µM, first compound 1 µM
[17] = second compound 3.16 µM, first compound 0.0316 µM
[18] = second compound 3.16 µM, first compound 0.1 µM
[19] = second compound 3.16 µM, first compound 0.316 µM
[20] = second compound 3.16 µM, first compound 1 µM
[21] = second compound 10 µM, first compound 0.0316 µM
[22] = second compound 10 µM, first compound 0.1 µM
[23] = second compound 10 µM, first compound 0.316 µM
[24] = second compound 10 µM, first compound 1 µM
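Further: spheroids exposed to agents for 7 days.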
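Wherever viability, T/C is given: 100% = DMSO vehicle wells.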

COc1c(OCCCN2CCOCC2)ccc2c3n(c(=NC(=O)c4cnc(N)nc4)nc12)CCN3 + CN1CCN(c2cc(C(=O)Nc3cc4cc(-c5cnn(C)c5)ccc4cn3)ccn2)CC1
IC50 (second compound 0.0316 µM): 86.6 nM
IC50 (second compound 0.1 µM): 36.2 nM
IC50 (second compound 0.316 µM): < 3.16 nM
IC50 (second compound 1 µM): < 3.16 nM
IC50 (second compound 3.16 µM): < 3.16 nM
IC50 (second compound 10 µM): < 3.16 nM
viability, T/C (second compound 0.0316 µM, first compound 0.00316 µM): 105%
viability, T/C (second compound 0.0316 µM, first compound 0.01 µM): 115%
viability, T/C [1]: 89.8%
viability, T/C [2]: 44%
viability, T/C [3]: 30.8%
viability, T/C [4]: 21.6%
viability, T/C (second compound 0.1 µM, first compound 0.00316 µM): 110%
viability, T/C (second compound 0.1 µM, first compound 0.01 µM): 94.4%
viability, T/C [5]: 50.1%
viability, T/C [6]: 29.1%
viability, T/C [7]: 19.1%
viability, T/C [8]: 12.3%
viability, T/C (second compound 0.316 µM, first compound 0.00316 µM): 26.4%
viability, T/C (second compound 0.316 µM, first compound 0.01 µM): 25.1%
viability, T/C [9]: 11.8%
viability, T/C [10]: 6.03%
viability, T/C [11]: 4.47%
viability, T/C [12]: 4.01%
viability, T/C (second compound 1 µM, first compound 0.00316 µM): 0.24%
viability, T/C (second compound 1 µM, first compound 0.01 µM): 1.7%
viability, T/C [13]: 0.49%
viability, T/C [14]: 0.1%
viability, T/C [15]: 0.08%
viability, T/C [16]: 1.24%
viability, T/C (second compound 3.16 µM, first compound 0.00316 µM): 0.1%
viability, T/C (second compound 3.16 µM, first compound 0.01 µM): 2.88%
viability, T/C [17]: 0.11%
viability, T/C [18]: 0.1%
viability, T/C [19]: 1.07%
viability, T/C [20]: 0.15%
viability, T/C (second compound 10 µM, first compound 0.00316 µM): 0.12%
viability, T/C (second compound 10 µM, first compound 0.01 µM): 0.15%
viability, T/C [21]: 0.98%
viability, T/C [22]: 0.33%
viability, T/C [23]: 0.17%
viability, T/C [24]: 1.41%

CC1(C)CCC(CN2CCN(c3ccc(C(=O)NS(=O)(=O)c4ccc(NCC5CCOCC5)c([N+](=O)[O-])c4)c(Oc4cnc5[nH]ccc5c4)c3)CC2)=C(c2ccc(Cl)cc2)C1 + CN1CCN(c2cc(C(=O)Nc3cc4cc(-c5cnn(C)c5)ccc4cn3)ccn2)CC1
IC50 (second compound 0.0316 µM): 5820 nM
IC50 (second compound 0.1 µM): 4310 nM
IC50 (second compound 0.316 µM): < 31.6 nM
IC50 (second compound 1 µM): < 31.6 nM
IC50 (second compound 3.16 µM): < 31.6 nM
IC50 (second compound 10 µM): < 31.6 nM
viability, T/C [1]: 105%
viability, T/C [2]: 106%
viability, T/C [3]: 102%
viability, T/C [4]: 103%
viability, T/C (second compound 0.0316 µM, first compound 3.16 µM): 106%
viability, T/C (second compound 0.0316 µM, first compound 10 µM): 1.63%
viability, T/C [5]: 109%
viability, T/C [6]: 118%
viability, T/C [7]: 110%
viability, T/C [8]: 129%
viability, T/C (second compound 0.1 µM, first compound 3.16 µM): 67.9%
viability, T/C (second compound 0.1 µM, first compound 10 µM): 1.54%
viability, T/C [9]: 35.4%
viability, T/C [10]: 31.4%
viability, T/C [11]: 32%
viability, T/C [12]: 26.9%
viability, T/C (second compound 0.316 µM, first compound 3.16 µM): 12.7%
viability, T/C (second compound 0.316 µM, first compound 10 µM): 1.79%
viability, T/C [13]: 0.16%
viability, T/C [14]: 0.22%
viability, T/C [15]: 0.2%
viability, T/C [16]: 0.16%
viability, T/C (second compound 1 µM, first compound 3.16 µM): 2.45%
viability, T/C (second compound 1 µM, first compound 10 µM): 0.3%
viability, T/C [17]: 0.12%
viability, T/C [18]: 0.14%
viability, T/C [19]: 0.15%
viability, T/C [20]: 0.12%
viability, T/C (second compound 3.16 µM, first compound 3.16 µM): 0.11%
viability, T/C (second compound 3.16 µM, first compound 10 µM): 0.62%
viability, T/C [21]: 0.13%
viability, T/C [22]: 0.14%
viability, T/C [23]: 0.16%
viability, T/C [24]: 0.15%
viability, T/C (second compound 10 µM, first compound 3.16 µM): 3.51%
viability, T/C (second compound 10 µM, first compound 10 µM): 0.2%

Source: PubChem BioAssay AID2060610 (Molecular Pharmacology Branch, DTP, NCI, 2025)
